# How the values were obtained:
# [1] = system: conscious, freely-moving rats; assay: regional haemodynamics in conscious, freely-moving rats (responses to salbutamol and isoprenaline); assay type: in vivo, rat; settings: atropine-treated rats
# Excerpt: Preliminary assessment of the action of one of the compounds of the invention was undertaken using an in vivo model for monitoring regional haemodynamics in conscious, freely-moving rats (Gardiner & Bennett, Am J Physiol. 1988 October; 255(4 Pt 2):H813-24). This model has the distinct advantage of enabling measurement of regional blood flow in addition to blood pressure in the fully conscious state.
# [2] = biological target: T1, beta1-adrenoceptor (Homo sapiens, UniProt P08588); assay: 3H-CGP12177 whole-cell binding, CHO cells expressing human beta1-adrenoceptor; design: expressed in transfected cells; host or cells: CHO cells; settings: 3H-CGP 12177 whole cell binding, mean ± s.e.mean; for Kd: log KD, read-out: Beta 1 Log KD (converted)
# Excerpt: (§1) The selectivity of a ligand is given by the ratio of beta-1 to beta-2 KD.
# Target sequence in this assay (P08588 whole entry): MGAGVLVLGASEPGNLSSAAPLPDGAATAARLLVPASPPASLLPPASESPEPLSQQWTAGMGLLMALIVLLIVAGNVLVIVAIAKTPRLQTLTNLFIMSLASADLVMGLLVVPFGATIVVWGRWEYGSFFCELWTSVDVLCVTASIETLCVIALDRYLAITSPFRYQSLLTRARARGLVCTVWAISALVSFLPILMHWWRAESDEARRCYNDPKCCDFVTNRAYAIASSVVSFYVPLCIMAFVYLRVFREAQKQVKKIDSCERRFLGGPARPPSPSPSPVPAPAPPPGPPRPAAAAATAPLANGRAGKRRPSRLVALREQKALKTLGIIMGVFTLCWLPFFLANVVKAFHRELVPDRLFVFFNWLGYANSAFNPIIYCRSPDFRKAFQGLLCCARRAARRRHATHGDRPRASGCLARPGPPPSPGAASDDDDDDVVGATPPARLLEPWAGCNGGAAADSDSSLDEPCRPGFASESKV
# [3] = biological target: T2, human beta3-adrenoceptor (Homo sapiens, UniProt P13945); assay: 3H-CGP12177 whole-cell binding, CHO cells expressing human beta3-adrenoceptor; settings: 3H-CGP 12177 whole cell binding, log KD, mean ± s.e.mean, read-out: Beta 3 Log KD (converted)
# T2 construct: expressed in transfected cells; host or cells: CHO cells
# [4] = biological target: T3, human beta2-adrenoceptor (Homo sapiens, UniProt P07550); assay: 3H-CGP12177 whole-cell binding, CHO cells expressing human beta2-adrenoceptor; settings: 3H-CGP 12177 whole cell binding, mean ± s.e.mean; for Kd: log KD, read-out: Beta 2 Log KD (converted)
# T3 construct: expressed in transfected cells; host or cells: CHO cells
# Excerpt: as §1
# [5] = biological target: T1, beta1-adrenoceptor; settings: background statement; cited from earlier work
# Target sequence in this assay (P08588 whole entry, species assumed): as the sequence (P08588 whole entry) above
# T2 sequence (P13945 whole entry): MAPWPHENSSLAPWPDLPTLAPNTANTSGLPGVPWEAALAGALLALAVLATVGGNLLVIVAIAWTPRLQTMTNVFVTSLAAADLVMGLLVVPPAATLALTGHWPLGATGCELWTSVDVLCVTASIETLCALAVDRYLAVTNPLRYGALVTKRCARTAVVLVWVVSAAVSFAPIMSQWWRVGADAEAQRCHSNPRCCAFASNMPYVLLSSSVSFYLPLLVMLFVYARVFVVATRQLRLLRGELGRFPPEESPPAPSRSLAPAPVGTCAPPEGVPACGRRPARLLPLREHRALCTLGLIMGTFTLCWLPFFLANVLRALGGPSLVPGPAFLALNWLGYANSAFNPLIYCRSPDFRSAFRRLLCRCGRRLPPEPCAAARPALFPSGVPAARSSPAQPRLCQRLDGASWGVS
# T3 sequence (P07550 whole entry): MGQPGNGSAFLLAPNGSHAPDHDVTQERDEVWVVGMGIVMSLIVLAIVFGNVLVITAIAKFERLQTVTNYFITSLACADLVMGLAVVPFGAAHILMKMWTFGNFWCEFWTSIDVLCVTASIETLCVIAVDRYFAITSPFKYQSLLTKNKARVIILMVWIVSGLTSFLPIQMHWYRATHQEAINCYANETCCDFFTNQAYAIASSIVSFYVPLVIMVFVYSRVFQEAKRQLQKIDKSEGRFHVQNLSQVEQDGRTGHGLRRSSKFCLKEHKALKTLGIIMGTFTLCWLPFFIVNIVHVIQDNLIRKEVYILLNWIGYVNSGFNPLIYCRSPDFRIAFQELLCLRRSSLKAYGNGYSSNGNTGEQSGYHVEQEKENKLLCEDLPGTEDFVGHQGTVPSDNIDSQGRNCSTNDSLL
Compound,Kd [2] [µM],Kd [3] [µM],Kd [4] [µM],Beta 1 Log KD [2],melting point [°C],Beta 2 Log KD [4],other results
O=C(NCCNCC(O)COc1ccc(OCCOCC2CC2)cc1)Nc1ccc(O)cc1 (stereo not shown) [46a],0.0302,24.5,> 100,,,,"beta1-adrenoceptor selectivity in a conscious rat cardiovascular model ([1]; 10 mg/kg i.v.): highly beta1-adrenoceptor selective; reflex heart rate response to salbutamol ([1]; n=4, after 46a 10 mg/kg i.v., before +55±14): +7±4 beats/min; isoprenaline-induced tachycardia ([1]; n=4, after 46a 10 mg/kg i.v., before +74±12): +11±4 beats/min; increase in hindquarters vascular conductance (salbutamol) ([1]; n=4, after 46a 10 mg/kg i.v., before +106±20): +98±15%; increase in hindquarters vascular conductance (isoprenaline) ([1]; n=4, after 46a 10 mg/kg i.v., before +126±20): +129±19%; hypotension (salbutamol) ([1]; n=4, after 46a 10 mg/kg i.v., before −11±1): −11±3 mmHg; hypotension (isoprenaline) ([1]; n=4, after 46a 10 mg/kg i.v., before −19±3): −18±2 mmHg"
O=C(NCCNCC(O)COc1ccc(OCCOCCc2ccc(F)cc2)cc1)Nc1ccc(O)cc1 (stereo not shown) [46b],,1.12,1.02,−8.50 ± 0.07,113 to 115,,
O=C(NCCNCC(O)COc1ccc(OCCOC2CCCC2)cc1)Nc1ccccc1 (stereo not shown) [47a],0.0126,24,3.02,,109 to 115,,
Cc1ccccc1NC(=O)NCCNCC(O)COc1ccc(OCCOC2CCCC2)cc1 (stereo not shown) [47b],,17.4,,−7.33 ± 0.03,114 to 115,−6.27 ± 0.02,
Cc1cccc(NC(=O)NCCNCC(O)COc2ccc(OCCOC3CCCC3)cc2)c1 (stereo not shown) [47c],,17.4,,−8.04 ± 0.04,,−6.06 ± 0.03,
Cc1ccc(NC(=O)NCCNCC(O)COc2ccc(OCCOC3CCCC3)cc2)cc1 (stereo not shown) [47d],,22.9,,−7.76 ± 0.04,142 to 144,,
COc1ccccc1NC(=O)NCCNCC(O)COc1ccc(OCCOC2CCCC2)cc1 (stereo not shown) [47e],,13.8,,−7.02 ± 0.04,78 to 83,−5.93 ± 0.02,
COc1cccc(NC(=O)NCCNCC(O)COc2ccc(OCCOC3CCCC3)cc2)c1 (stereo not shown) [47f],,17.4,,−7.76 ± 0.03,103 to 110,−6.05 ± 0.03,
COc1ccc(NC(=O)NCCNCC(O)COc2ccc(OCCOC3CCCC3)cc2)cc1 (stereo not shown) [47g],,20,,−7.80 ± 0.04,121 to 125,−5.86 ± 0.04,
O=C(NCCNCC(O)COc1ccc(OCCOC2CCCC2)cc1)Nc1ccccc1F (stereo not shown) [47h],,21.4,,−7.82 ± 0.03,115 to 117,−5.94 ± 0.04,
O=C(NCCNCC(O)COc1ccc(OCCOC2CCCC2)cc1)Nc1cccc(F)c1 (stereo not shown) [47i],,18.6,,−8.17 ± 0.03,108 to 110,−6.54 ± 0.02,
O=C(NCCNCC(O)COc1ccc(OCCOC2CCCC2)cc1)Nc1ccc(F)cc1 (stereo not shown) [47j],,24.5,,−7.70 ± 0.04,130 to 133,−5.92 ± 0.09,
O=C(NCCNCC(O)COc1ccc(OCCOC2CCCC2)cc1)Nc1ccccc1Cl (stereo not shown) [47k],,18.6,,−7.11 ± 0.03,99 to 103,,
O=C(NCCNCC(O)COc1ccc(OCCOC2CCCC2)cc1)Nc1ccc(Cl)cc1 (stereo not shown) [47m],,13.5,,−7.95 ± 0.05,133 to 140,−5.91 ± 0.86,
O=C(NCCNCC(O)COc1ccc(OCCOC2CCCC2)cc1)Nc1ccccc1Br (stereo not shown) [47n],,14.8,,−7.11 ± 0.01,,−6.10 ± 0.03,
O=C(NCCNCC(O)COc1ccc(OCCOC2CCCC2)cc1)Nc1cccc(Br)c1 (stereo not shown) [47o],,10.2,,−7.92 ± 0.05,120 to 122,,
O=C(NCCNCC(O)COc1ccc(OCCOC2CCCC2)cc1)Nc1ccc(Br)cc1 (stereo not shown) [47p],,9.33,,−7.77 ± 0.04,148 to 150,−5.86 ± 0.04,
O=C(NCCNCC(O)COc1ccc(OCCOC2CCCC2)cc1)Nc1ccccc1C(F)(F)F (stereo not shown) [47q],,24,,−6.94 ± 0.01,128 to 130,−5.84 ± 0.02,
O=C(NCCNCC(O)COc1ccc(OCCOC2CCCC2)cc1)Nc1cccc(C(F)(F)F)c1 (stereo not shown) [47r],,11.5,,−7.77 ± 0.06,96 to 98,−5.86 ± 0.06,

Compound,Kd [2] [µM],Kd [3] [µM],Kd [4] [µM],Beta 1 Log KD [2],melting point [°C],Beta 2 Log KD [4],other results
O=C(NCCNCC(O)COc1ccc(OCCOC2CCCC2)cc1)Nc1ccc(C(F)(F)F)cc1 (stereo not shown) [47s],,11.7,,−7.70 ± 0.04,134 to 136,−5.76 ± 0.04,
"O=C(NCCNCC(O)COc1ccc(OCCOC2CCCC2)cc1)Nc1cccc(O)c1 (stereo not shown) [47u, 1-(2-(3-(4-(2-(Cyclopentyloxy)ethoxy)phenoxy)-2-hydroxypropylamino)ethyl)-3-(3-hydroxyphenyl)urea]",,6.92,,−7.89 ± 0.06,,−5.85 ± 0.06,
O=C(NCCNCC(O)COc1ccc(OCCOC2CCCC2)cc1)Nc1ccc(O)cc1 (stereo not shown) [47v],0.00692,8.32,,,135 to 138,−5.45 ± 0.10,
"O=C(NCCNCC(O)COc1ccc(OCCOC2CCCC2)cc1)Nc1ccc(F)c(F)c1 (stereo not shown) [54a, 1-(2-(3-(4-(2-(Cyclopentyloxy)ethoxy)phenoxy)-2-hydroxypropylamino)ethyl)-3-(3,4-difluorophenyl)urea]",0.00955,8.91,1.32,,113 to 115,,
O=C(NCCNCC(O)COc1ccc(OCCOC2CCCC2)cc1)c1ccccc1O (stereo not shown) [54d],0.0324,4.57,0.501,,,,
O=C(NCCNCC(O)COc1ccc(OCCOC2CCCC2)cc1)c1cccc(O)c1 (stereo not shown) [54e],0.0309,1.1,0.282,,,,
O=C(NCCNCC(O)COc1ccc(OCCOC2CCCC2)cc1)c1ccc(O)cc1 (stereo not shown) [54f],0.00174,0.513,0.162,,,,
O=C(NCCNCC(O)COc1ccc(OCCOC2CCCC2)cc1)c1ccccc1F (stereo not shown) [54g],0.204,3.09,1.74,,75 to 76,,
O=C(NCCNCC(O)COc1ccc(OCCOC2CCCC2)cc1)c1cccc(F)c1 (stereo not shown) [54h],0.0741,1.12,0.55,,85 to 86,,
O=C(NCCNCC(O)COc1ccc(OCCOC2CCCC2)cc1)c1ccc(F)cc1 (stereo not shown) [54i],0.0275,2.04,0.363,,99 to 100,,
"O=C(Cc1cccc(O)c1)NCCNCC(O)COc1ccc(OCCOC2CCCC2)cc1 (stereo not shown) [54j, N-(2-(3-(4-(2-(cyclopentyloxy)ethoxy)phenoxy)-2-hydroxypropylamino)ethyl)-2-(3-hydroxyphenyl)acetamide]",0.00372,2.51,0.0155,,,,
CCOCCOc1ccc(OC[C@@H](O)CNCCc2ccc(OC)c(OC)c2)cc1 [D-140S],,,,,,,β1-selectivity [5]: 4.400 fold
"OC(CNCCOc1ccccc1)COc1ccc(OCCOC2CCCC2)cc1 (stereo not shown) [compound 48, 1-(2-Phenoxyethylamino)-3-(4-(2-(cyclopentyloxy)ethoxy)phenoxy)propan-2-ol]",0.0347,4.47,0.912,,155 to 157,,
"O=C(Cc1ccccc1)NCCNCC(O)COc1ccc(OCCOC2CCCC2)cc1 (stereo not shown) [compound 49, N-(2-(3-(4-(2-(Cyclopentyloxy)ethoxy)phenoxy)-2-hydroxypropylamino)ethyl)-2-phenylacetamide Hydroformate]",0.0038,4.37,0.0537,,,,
"O=C(Nc1ccccc1)OCCNCC(O)COc1ccc(OCCOC2CCCC2)cc1 (stereo not shown) [compound 51, 2-(3-(4-(2-(Cyclopentyloxy)ethoxy)phenoxy)-2-hydroxypropylamino)ethyl phenylcarbamate]",0.0295,1.05,0.468,,,,
"OC(CNCCNC(=S)Nc1ccccc1)COc1ccc(OCCOC2CCCC2)cc1 (stereo not shown) [compound 52, 1-(2-(3-(4-(2-(Cyclopentyloxy)ethoxy)phenoxy)-2-hydroxypropylamino)ethyl)-3-phenylthiourea]",0.0813,7.08,0.692,,,,
"O=S(=O)(Cc1ccccc1)NCCNCC(O)COc1ccc(OCCOC2CCCC2)cc1 (stereo not shown) [compound 53, N-(2-(3-(4-(2-(Cyclopentyloxy)ethoxy)phenoxy)-2-hydroxypropylamino)ethyl)-benzylsulfonamide]",0.0257,19.1,0.933,,,,
"O=C(NCCNCC(O)COc1ccc(OCCOC2CCCC2)cc1)Nc1ccc(O)c(F)c1 (stereo not shown) [compound 54, 1-(2-(3-(4-(2-(Cyclopentyloxy)ethoxy)phenoxy)-2-hydroxypropylamino)ethyl)-3-(3-fluoro-4-hydroxyphenyl)urea Hydroformate]",0.00851,10.2,2.57,,,,
